A short description of data set [1]: Prior-art experiments to convert Beta form to Alpha form or amorphous, repeated under exactly the same conditions. The data set is classed as physicochemical. The following applies: conditions of U.S. Pat. No. 6,110,940 (example 2) and WO2008/137134 (examples 16-19; 2, 7, 8, 12, 13). As to the method:
In addition, the same experiments described in U.S. Pat. No. 6,110,940 (example 2) and WO2008/137134 (examples 16, 17, 18, 19) to convert Eletriptan Beta form to Alpha form and those described in WO2008/137134 (examples 2, 7, 8, 12 and 13) to convert Eletriptan Beta form to amorphous were carried out on Eletriptan Hydrobromide form Beta of invention, applying exactly the same conditions. […] There results confirms the stability of Eletriptan hydrobromide Beta form of invention and his different behaviour in comparison with the same form described in the State of the Art.

The nature of data set [2]: Stability tests of Eletriptan hydrobromide Beta form polymorph in various solvents, temperatures and times. The data set is classed as physicochemical. Conditions: all experiments of the 1st table: various solvents, RT to 80° C. or heating, 5-48 hr; DSC trace. From the text:
Eletriptan hydrobromide Beta form obtained according to the inventive process has been subject to a series of experiments to assess its stability against the conversion into Form Alpha of higher melting point or in amorphous.
These experiments have been performed in various solvents and at various temperature and time conditions. […] The DSC trace is the same for all the product prepared according to Example 18 and is the same of that of Beta polymorph.

A short description of data set [3]: DSC study with heating/cooling cycles to convert Beta form to other forms. It is filed as physicochemical.
A short description of data set [4]: Hygroscopicity test as described in the European Pharmacopoeia 5.0. The data set is classed as physicochemical. The following applies: 25° C., 80% rel. humidity, 24 h. As to the method: Eletriptan hydrobromide Beta stable form obtained according to the inventive process has been subject to the hygroscopicity test as described in the European Pharmacopoeia 5.0 (25° C., 80% rel. humidity, 24 h).

The conditions of data set [5]: reported in U.S. Pat. No. 6,110,940; converts into Form Alpha; cited from earlier work.

As for `Br.CN1CCC[C@@H]1Cc1c[nH]c2ccc(CCS(=O)(=O)c3ccccc3)cc12` [Eletriptan hydrobromide Form Beta, 3-{[(2R)-1-methylpyrrolidin-2-yl]methyl}-5-[2-(phenylsulfonyl)ethyl]-1H-indole hydrobromide], in data set [1], the polymorphic form obtained result is “provided only Eletriptan hydrobromide form Beta”. Moreover, the “stability against conversion into Form Alpha, amorphous or other forms” value in data set [2] is recorded as “did not convert into Form A, amorphous or other crystalline forms or in any hydrated form”. In addition, in data set [3], the polymorphic form obtained entry is on record as “provided always Form Beta”. In data set [4], the “hygroscopicity (classification)” value is “not hygroscopic” and the “hygroscopicity (value)” value is reported as 0.1%.
On to `Br.CN1CCC[C@@H]1Cc1c[nH]c2ccc(CCS(=O)(=O)c3ccccc3)cc12` [Form Beta of Eletriptan hydrobromide], for which the stability of polymorph result in data set [5] is recorded as “not stable”.

(Values after patent US8426612B2, “Synthesis of 3-{[(2R)-1-methylpyrrolidin-2-yl]methyl}-5[2-(phenylsulfonyl)ethyl]-1H-indole” (F.I.S. Fabbrica Italiana Sintetici S.p.A., priority 2009, dated 2013).)
